Data on 64 compounds can be found in the OPERA property sets (Mansouri et al. 2018).

The logP is the decadic logarithm of the partition coefficient of the neutral form, usually between octanol and water. The solubility is the dissolved amount per volume that the medium holds. A higher solubility goes with a readily soluble substance.

≈ marks a conversion by molar mass, not a printed value.

The compound `CCCN(C)N=O` yielded a logP of 0.56. Still for that read-out and setting: for `Clc1ccc2c(Cl)c(Cl)c(Cl)c(Cl)c2c1` the value was 7.

`CCCOC(=O)[C@@H](N)Cc1ccc(O)c(O)c1` registered a log partition coefficient (logP) of 0.76. Regarding `CCCCC(C)=NNC(N)=Nc1ccccc1`, the logP turned out to be 2.05. Still for that read-out and setting: for `CC(C)C(=O)Nc1ccc([N+](=O)[O-])c(C(F)(F)F)c1` the value was 3.35. Take `c1ccc2c(c1)ccc1[nH]c3ccc4ccccc4c3c12`: the solubility was determined as 0.236 µM (≈ 0.063 µg/mL). In turn, `CCCCC(OC(Cc1ccccc1)C(=O)N1CCC(OCOC)CC1)C(=O)NC(CC1CCCCC1)C(O)CC(C(=O)NCCCNC(=NC#N)NC)C(C)C` (stereo unspecified) registered a logP of 4.4.

For `CCOP(=S)(OCC)Oc1ccc(N)cc1`, the solubility came out at 1490 µM (≈ 390 µg/mL). Compound `c1ccc2c(c1)[nH]c1cnccc12` gave a logP of 3.17. Regarding `c1ccc(N=Nc2ccccc2)cc1`, the solubility is 35.1 µM (≈ 6.4 µg/mL).

The compound `C#CCN(C)C(C)Cc1ccc(F)cc1` (stereo unspecified) displayed a logP of 3. Still for that read-out and setting: the figure for `NS(=O)(=O)c1cccc2ccccc12` is 1.55; for `CCCCCCOc1ccc(N)cc1` it is 3.64.

With `C#CC(C)(C)NC(=O)c1cc(Cl)cc(Cl)c1`, the logP is 3.43. Regarding `CC(=O)OCCOCn1cnc2c(=O)[nH]c(N)nc21`, the logP is -1.07.

For the compound `C=CCOc1ccccc1OCC(CNC(C)C)OC(=O)CCCC` (stereo unspecified), the log partition coefficient (logP) was 4. Take `O=C1c2cc([N+](=O)[O-])ccc2-c2ccc([N+](=O)[O-])cc21`: the logP was 2.84. On the same count and under the same terms, for `Nc1c(Oc2ccccc2)c(Oc2ccccc2)c(N)c2c1C(=O)c1ccccc1C2=O` the value was 5.19. On to `CCN(CC)C(=O)CCC(=O)OCn1ncc2c(O)ncnc21`, for which the logP is -0.22. Regarding `CCOC1OC2OC3(C)CCC4C(CO)CCC(C1C)C24OO3` (stereo unspecified), the logP was 2.08. For `CCCC(=NOCC)C1=C(O)CC(CC(C)SCC)CC1=O` (stereo unspecified), the logP came out at 4.38. For `CC(CCC(=O)NCC(=O)O)C1CCC2C3CC(O)C4CC(O)CCC4(C)C3CCC12C` (stereo unspecified), the logP amounted to 2.15. On to `Cc1c(CNc2ccccc2)cnc2nc(N)nc(N)c12`, for which the logP came out at 2.02. In turn, `CCCCCCCCC(=O)OC` returned a logP of 4.32.

Turning to `c1ccc(CNc2[nH]cnc3ncnc2-3)cc1`, the logP was found to be 1.57.

`CCOC(=O)C(C)OC(=O)c1cc(Oc2ccc(C(F)(F)F)cc2Cl)ccc1[N+](=O)[O-]` (stereo unspecified) had a solubility of 0.217 µM (≈ 0.1 µg/mL). As for `OCc1cc(Br)cc(Br)c1O`, the logP turned out to be 2.72.

With `Cn1cccc(O)c1=O`, the logP is -0.4. Consider `COc1cc([N+](=O)[O-])c2ncccc2c1`, for which the logP came out at 1.87. In turn, `Cc1cc(OCCN(C)C)c(C(C)C)cc1O` registered a logP of 2.93. Same read-out and setting: for `CC(C)C1(C)N=C(c2nc3ccccc3cc2C(=O)O)NC1=O` (stereo unspecified) the value was 1.86.

For `CC(C)(O)C(=O)Nc1ccc(Cl)cc1`, the logP stood at 2. With `CC1=NS(=O)(=O)c2cnccc2N1`, the logP was -0.41. On the same count and under the same terms, the figure for `COc1ccc(C#N)cc1` is 1.7; for `CC(C)c1ccccc1-c1ccccc1` it is 5.2; for `O=[N+]([O-])c1cncn1CCN1CCOCC1` it is 0.07. For `CC1COCc2cc3c(cc21)C(C)(C)C(C)C3(C)C` (stereo unspecified), the logP came to 5.9. The same measure, in the same setting: for `Fc1ccc(C2=CCNCC2)cc1` the value was 2.37; for `NS(=O)(=O)c1cc2cc(CN3CCOCC3)sc2o1`, 0.88. `COc1ccc(C=[N+]([O-])c2ccccc2)cc1` had a logP of 1.94. `Cc1ccccc1CCN` showed a log partition coefficient (logP) of 1.6. On the same count and under the same terms, the figure for `BrC=C(Br)Br` is 3.2. In the case of `CCCCN(CCOC(C)=O)c1ccc(N=Nc2c(C#N)cc([N+](=O)[O-])cc2C#N)c(C)c1`, the logP turned out to be 5.5 and the solubility worked out at 0.00132 µM (≈ 0.00059 µg/mL).

As for `CCCCCCCC`, the logP amounted to 5.18. Regarding `Brc1cccc(-c2ccccc2)c1`, the logP came to 4.85. On the same count and under the same terms, for `CCC(C)n1ncn(-c2ccc(N3CCN(c4ccc(OC[C@H]5CO[C@](Cn6cncn6)(c6ccc(Cl)cc6Cl)O5)cc4)CC3)cc2)c1=O` (stereo partly specified) the value was 5.66. Regarding `Cc1cccc(NC(=O)c2ccccc2C(=O)O)c1`, the solubility was found to be 3920 µM (≈ 1000 µg/mL). For `Clc1ccc2ccc(Cl)cc2c1`, the log partition coefficient (logP) came out at 4.81. The same measure, in the same setting: for `COC1=C(OC)C(=O)C(OC)=C(OC)C1=O` the value was 0.41. On to `CCOP(=O)(OCC)SCc1ccccc1`, for which the logP was 3.21 and the solubility was 3840 µM (≈ 1000 µg/mL). The compound `COc1cc(N=Nc2c(Br)cc([N+](=O)[O-])cc2[N+](=O)[O-])c(NC(C)=O)c(N(CCOC(C)=O)CCOC(C)=O)c1` registered a logP of 4.44. With `O=P(O)(O)CCCl`, the logP was -0.22. Still for that read-out and setting: the figure for `CCCN(CCC)C1COc2c(O)cccc2C1` (stereo unspecified) is 3.3; for `CCSCCn1cnc2c(=N)n(C)c(=O)[nH]c21` it is 0; for `c1ncncn1` it is 0.12. Compound `C=C(Br)CC1(C(C)CC)C(=O)NC(=O)NC1=O` (stereo unspecified) gave a logP of 2.2. As to `CC(CC(=O)c1ccccc1)C(=O)O` (stereo unspecified), the logP was 1.62. Still for that read-out and setting: the figure for `Cn1cnc(I)c1[N+](=O)[O-]` is 1.29.

As for `CC1(C)[C@H](/C=C(\Cl)C(F)(F)F)[C@@H]1C(=O)O[C@H](C#N)c1cccc(Oc2ccccc2)c1`, the solubility was found to be 0.0111 µM (≈ 0.005 µg/mL). On to `COC(=O)c1cc2ccccc2o1`, for which the logP worked out at 2.53. Turning to `COC(=O)c1ccccc1C(=O)OC`, the logP came out at 1.6. Still for that read-out and setting: the figure for `CC1(C)Cc2cccc([N+](=O)[O-])c2O1` is 3.33; for `[O-][N+](=Cc1ccccc1)c1ccccc1` it is 1.88. The same measure, in the same setting: the figure for `Cc1ccc(O[Si]23OCCN(CCO2)CCO3)cc1` is 0.08.
